Positions of bridges follow the written chain, without caps; N, C: chain ends. Residues, ends and D or L forms follow the SMILES beside them.
Assays:
[1] = test system: male Wistar rats; assay: Systemic infusions in anaesthetized rat (haemodynamics, echocardiography); format: in vivo
Experimental: Blood pressure (BP) was monitored continuously via an intra-arterial line and echocardiography was used after each bolus to determine changes in heart […], stroke volume, cardiac output (from peak velocity and velocity time interval) and respiratory rate. Rectal temperature was monitored throughout. BP was analyzed using absolute change in mean BP from the baseline taken just before the bolus and area under the curve analysis.

[2] = molecular target: T1, human apelin receptor (Homo sapiens, UniProt P35414); assay: Competition binding in CHO-K1-APJ cells; settings: competition for [Glp65,Nle75,Tyr77][125I]apelin-13 binding; human apelin receptors in CHO-K1 cells
T1 sequence (P35414 1-380): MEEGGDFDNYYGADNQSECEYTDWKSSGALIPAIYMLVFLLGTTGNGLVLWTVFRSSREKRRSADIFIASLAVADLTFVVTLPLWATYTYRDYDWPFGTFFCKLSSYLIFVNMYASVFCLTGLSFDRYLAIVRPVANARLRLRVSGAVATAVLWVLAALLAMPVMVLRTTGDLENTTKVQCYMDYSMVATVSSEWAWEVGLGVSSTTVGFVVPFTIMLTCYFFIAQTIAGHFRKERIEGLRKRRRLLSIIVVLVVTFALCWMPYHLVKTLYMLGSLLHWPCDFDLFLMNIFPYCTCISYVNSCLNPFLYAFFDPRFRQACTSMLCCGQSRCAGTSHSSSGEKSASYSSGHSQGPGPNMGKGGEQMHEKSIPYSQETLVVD
Experimental: Initial assays were performed in cells expressing the human apelin receptor (CHO-K1-APJ cells; Cerep, Celle L’Evescault, France). […] Data were analyzed (KELL package; Biosoft, UK) to obtain the dissociation constant KD (concentration of ligand occupying 50% of receptors).

[3] = molecular target: T1, human apelin receptor; assay: Competition binding in homogenate of human left ventricle; settings: competition for 0.1 nmol/L [Glp65,Nle75,Tyr77][125I]apelin-13; human heart (left ventricle homogenate); n=3
[4] = test system: human hand vein; assay: Aellig hand vein technique study in human volunteers; format: in vivo
Description: All volunteers (n=12 forearm plethysmography, n=10 hand vein studies) gave written informed consent, and studies adhered to the principles of the Declaration of Helsinki and were approved by the National Research Ethics Service Committee East of England–Cambridge Central (REC 11/EE/0305).

[5] = In vivo plasma half-life of apelin peptides; settings: rat, iv
Description: Rats (230–260 g), anaesthetized with 2% isoflurane, were given a single intravenous bolus (600 nmol) of apelin or MM07 (both n=3).

Which “BP response to SNAP” value ([1]; given after peptide doses, both peptide-treated groups) does the source give for `CC(=O)NC(C(=O)O)C(C)(C)SN=O` (racemic) [SNAP, S-Nitroso-N-acetyl-D,L-penicillamine] here?
Its value is “profound fall in BP”.

For `CSCC[C@H](NC(=O)[C@@H]1CCCN1C(=O)CNC(=O)[C@H](CCCCN)NC(=O)[C@H](Cc1cnc[nH]1)NC(=O)[C@@H]1CSSC[C@H](N)C(=O)N[C@@H](CCCNC(=N)N)C(=O)N2CCC[C@H]2C(=O)N[C@@H](CCCNC(=N)N)C(=O)N[C@@H](CC(C)C)C(=O)N1)C(=O)N1CCC[C@H]1C(=O)N[C@@H](Cc1ccccc1)C(=O)O` [MM07] (H-CRPRLCHKGPMPF-OH; disulfide 1-6), which Kd [2] is on record?
The Kd was 300 nM.

And the Kd [3]?
Its Kd is 172 nM.

And the “adverse events in hand vein study” value ([4]; human, in vivo)?
Its value is “no adverse events observed”.

What about the half-life [5] of the same compound?
The half-life was 17.4 ± 0.4 min.

For `CSCC[C@H](NC(=O)[C@@H]1CCCN1C(=O)CNC(=O)[C@H](CCCCN)NC(=O)[C@H](Cc1cnc[nH]1)NC(=O)[C@H](CO)NC(=O)[C@H](CC(C)C)NC(=O)[C@H](CCCNC(=N)N)NC(=O)[C@@H]1CCCN1C(=O)[C@H](CCCNC(=N)N)NC(=O)[C@@H]1CCC(=O)N1)C(=O)N1CCC[C@H]1C(=O)N[C@@H](Cc1ccccc1)C(=O)O` [[Pyr^1]apelin-13, reference compound], which respiratory rate ([1]; incremental bolus doses 1-300 nmol) is on record?
Its respiratory rate is “Neither peptide caused a significant change”.

What about the “adverse events in hand vein study” value ([4]; human volunteers) of the same compound?
The value was “no adverse events observed”.

Source: publication PMC4354462, “Design, Characterization, and First-In-Human Study of the Vascular Actions of a Novel Biased Apelin Receptor Agonist” (Hypertension, 2015)
